ChEMBL document CHEMBL2016514, “Homobivalent ligands of the atypical antipsychotic clozapine: design, synthesis, and pharmacological evaluation” (J Med Chem, 2012)

Legend:
D(2) dopamine receptor [1] = target: T1, D(2) dopamine receptor (Homo sapiens, UniProt P14416); experiment: Inhibition of human dopamine D2L receptor expressed in intact CHO FlpIn cells assessed as inhibition of receptor-mediated mediated ERK1/2 phosphorylation by Alpha-Screen plate-based assay; type: cell-based
D(2) dopamine receptor [2] = target: T1, D(2) dopamine receptor; experiment: Displacement of [3H]-spiperone from human dopamine D2L receptor expressed in CHO FlpIn cell membrane measured after 3 hrs by topcount scintillation counting

T1 sequence (P14416 whole entry): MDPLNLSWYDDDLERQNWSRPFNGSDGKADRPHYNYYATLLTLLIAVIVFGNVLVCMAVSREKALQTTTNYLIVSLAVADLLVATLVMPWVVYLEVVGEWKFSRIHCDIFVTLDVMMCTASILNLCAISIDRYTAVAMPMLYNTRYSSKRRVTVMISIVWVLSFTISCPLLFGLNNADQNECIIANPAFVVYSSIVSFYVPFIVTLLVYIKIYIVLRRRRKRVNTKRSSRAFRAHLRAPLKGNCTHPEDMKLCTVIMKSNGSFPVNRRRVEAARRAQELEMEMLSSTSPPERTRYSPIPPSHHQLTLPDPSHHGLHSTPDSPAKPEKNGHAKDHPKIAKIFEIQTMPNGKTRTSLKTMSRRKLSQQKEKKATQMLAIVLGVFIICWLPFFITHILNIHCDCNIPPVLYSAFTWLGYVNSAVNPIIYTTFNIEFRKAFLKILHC

| SMILES | IC50 (D(2) dopamine receptor [1]; read-out: IC50) [nM] | pIC50 (D(2) dopamine receptor [1]; cho) | also measured |
| --- | --- | --- | --- |
| O=C(CCCCCCC(=O)NCCCN1CCN(C2=Nc3cc(Cl)ccc3Nc3ccccc32)CC1)NCCCN1CCN(C2=Nc3cc(Cl)ccc3Nc3ccccc32)CC1 | 23 |  | Ki (D(2) dopamine receptor [2]; read-out: Ki): 1.41 nM; Ki (D(2) dopamine receptor [2]; read-out: pKi (converted)): 1.35 nM |
| CN1CCN(C2=Nc3cc(Cl)ccc3N(NC(=O)CCCCC(=O)NN3c4ccc(Cl)cc4N=C(N4CCN(C)CC4)c4ccccc43)c3ccccc32)CC1 | 2080 |  | IC50 (D(2) dopamine receptor [1]; read-out: pIC50 (converted)): 2040 nM |
| CN1CCN(C2=Nc3cc(Cl)ccc3N(NC(=O)CCCCCCCCCCCCC(=O)NN3c4ccc(Cl)cc4N=C(N4CCN(C)CC4)c4ccccc43)c3ccccc32)CC1 | > 10000 | < 5 |  |
| CN1CCN(C2=Nc3cc(Cl)ccc3N(C(=O)CCCCCCCCCCCCC(=O)N3c4ccc(Cl)cc4N=C(N4CCN(C)CC4)c4ccccc43)c3ccccc32)CC1 | > 10000 | < 5 |  |
| CN1CCN(C2=Nc3cc(Cl)ccc3N(NC(=O)CCCCCCCCCCCCCCCCC(=O)NN3c4ccc(Cl)cc4N=C(N4CCN(C)CC4)c4ccccc43)c3ccccc32)CC1 | > 10000 | < 5 |  |
| CCCCCCCCCC(=O)NN1c2ccc(Cl)cc2N=C(N2CCN(C)CC2)c2ccccc21 | 8940 |  |  |
| O=C(CCCCCCCCC(=O)NCCCN1CCN(C2=Nc3cc(Cl)ccc3Nc3ccccc32)CC1)NCCCN1CCN(C2=Nc3cc(Cl)ccc3Nc3ccccc32)CC1 | 44 |  | Ki (D(2) dopamine receptor [2]; read-out: Ki): 1.35 nM; Ki (D(2) dopamine receptor [2]; read-out: pKi (converted)): 1.23 nM |
| O=C(CCCCCCCCCCC(=O)NCCCN1CCN(C2=Nc3cc(Cl)ccc3Nc3ccccc32)CC1)NCCCN1CCN(C2=Nc3cc(Cl)ccc3Nc3ccccc32)CC1 | 1120 |  | IC50 (D(2) dopamine receptor [1]; read-out: pIC50 (converted)): 1100 nM |
| CN1CCN(C2=Nc3cc(Cl)ccc3N(C(=O)CCCCCCCCCCCCCCCCC(=O)N3c4ccc(Cl)cc4N=C(N4CCN(C)CC4)c4ccccc43)c3ccccc32)CC1 | > 10000 | < 5 |  |
| CN1CCN(C2=Nc3cc(Cl)ccc3N(NC(=O)CCCCCCCCCCCCCCCCCCC(=O)NN3c4ccc(Cl)cc4N=C(N4CCN(C)CC4)c4ccccc43)c3ccccc32)CC1 | > 10000 | < 5 |  |
| CCCCCCCCCC(=O)N1c2ccc(Cl)cc2N=C(N2CCN(C)CC2)c2ccccc21 | 776 |  |  |
| CN1CCN(C2=Nc3cc(Cl)ccc3N(C(=O)CCCCCCCCCCC(=O)N3c4ccc(Cl)cc4N=C(N4CCN(C)CC4)c4ccccc43)c3ccccc32)CC1 | > 10000 | < 5 |  |
| O=C(CCCCCCCCCCCCCCCCC(=O)NCCCN1CCN(C2=Nc3cc(Cl)ccc3Nc3ccccc32)CC1)NCCCN1CCN(C2=Nc3cc(Cl)ccc3Nc3ccccc32)CC1 | 7800 |  | Ki (D(2) dopamine receptor [2]; read-out: Ki): 269 nM; Ki (D(2) dopamine receptor [2]; read-out: pKi (converted)): 245 nM |
| CN1CCN(C2=Nc3cc(Cl)ccc3N(NC(=O)CCCCCCC(=O)NN3c4ccc(Cl)cc4N=C(N4CCN(C)CC4)c4ccccc43)c3ccccc32)CC1 | 2440 |  |  |
| CCCCCCCCCC(=O)NCCCN1CCN(C2=Nc3cc(Cl)ccc3Nc3ccccc32)CC1 | 1460 |  | Ki (D(2) dopamine receptor [2]; read-out: Ki): 9.1 nM; Ki (D(2) dopamine receptor [2]; read-out: pKi (converted)): 8.91 nM |
| CN1CCN(C2=Nc3cc(Cl)ccc3N(C(=O)CCCCCCC(=O)N3c4ccc(Cl)cc4N=C(N4CCN(C)CC4)c4ccccc43)c3ccccc32)CC1 | 2660 |  | IC50 (D(2) dopamine receptor [1]; read-out: pIC50 (converted)): 1780 nM |
| CN1CCN(C2=Nc3cc(Cl)ccc3N(NC(=O)CCC(=O)OCCOC(=O)CCC(=O)NN3c4ccc(Cl)cc4N=C(N4CCN(C)CC4)c4ccccc43)c3ccccc32)CC1 | 2410 |  |  |
| O=C(CCCCCCCCCCCCC(=O)NCCCN1CCN(C2=Nc3cc(Cl)ccc3Nc3ccccc32)CC1)NCCCN1CCN(C2=Nc3cc(Cl)ccc3Nc3ccccc32)CC1 | 11000 |  |  |
| CN1CCN(C2=Nc3cc(Cl)ccc3N(C(=O)CCCCCCCCCCCCCCCCCCC(=O)N3c4ccc(Cl)cc4N=C(N4CCN(C)CC4)c4ccccc43)c3ccccc32)CC1 | > 10000 | < 5 |  |
| O=C(CCCCC(=O)NCCCN1CCN(C2=Nc3cc(Cl)ccc3Nc3ccccc32)CC1)NCCCN1CCN(C2=Nc3cc(Cl)ccc3Nc3ccccc32)CC1 | 87 |  | Ki (D(2) dopamine receptor [2]; read-out: Ki): 3.6 nM; Ki (D(2) dopamine receptor [2]; read-out: pKi (converted)): 3.16 nM |
| CN1CCN(C2=Nc3cc(Cl)ccc3N(NC(=O)CCCCCCCCCCC(=O)NN3c4ccc(Cl)cc4N=C(N4CCN(C)CC4)c4ccccc43)c3ccccc32)CC1 | > 10000 | < 5 |  |
| O=C(CCCCCCCCCCCCCCCCCCC(=O)NCCCN1CCN(C2=Nc3cc(Cl)ccc3Nc3ccccc32)CC1)NCCCN1CCN(C2=Nc3cc(Cl)ccc3Nc3ccccc32)CC1 |  |  | IC50 (D(2) dopamine receptor [1]; cho, read-out: IC50): > 10000 nM; IC50 (D(2) dopamine receptor [1]; read-out: pIC50 (converted)): > 10000 nM |
| CN1CCN(C2=Nc3cc(Cl)ccc3N(NC(=O)CCC(=O)N3CCN(C(=O)CCC(=O)NN4c5ccc(Cl)cc5N=C(N5CCN(C)CC5)c5ccccc54)CC3)c3ccccc32)CC1 | 1620 |  |  |
| CN1CCN(C2=Nc3cc(Cl)ccc3N(NC(=O)CCCC(=O)N3CCN(C(=O)CCCC(=O)NN4c5ccc(Cl)cc5N=C(N5CCN(C)CC5)c5ccccc54)CC3)c3ccccc32)CC1 | 2630 |  |  |
| CN1CCN(C2=Nc3cc(Cl)ccc3N(NC(=O)CCCCCCCCC(=O)NN3c4ccc(Cl)cc4N=C(N4CCN(C)CC4)c4ccccc43)c3ccccc32)CC1 | > 10000 | < 5 |  |
| CN1CCN(C2=Nc3cc(Cl)ccc3N(C(=O)CCCCCCCCC(=O)N3c4ccc(Cl)cc4N=C(N4CCN(C)CC4)c4ccccc43)c3ccccc32)CC1 | > 10000 | < 5 |  |
